{"source": "patent US20080085338A1", "about": "“Pet Food” (priority 2005, published 2008)", "key": {"[1]": {"system": "bacteria taken from the feline oral cavity", "assay": "in vitro antibacterial activity", "format": "cell-based", "method": "Periodontopathic conditions are the most common disease in dogs and cats. Especially in cats, prophylaxis is usually limited to professional dental cleaning under anaesthesia. Special diets which reduce plaque and calculus accumulation have been formulated to extend the period of time between professional dental cleanings. The study was conducted to determine the effect of EGCG in a regular dry diet on the oral health of cats. In addition, the in vitro antibacterial activity of the substance and its effect on the antioxidant status of cats were evaluated. […] With a view to achieving better in vivo results, a change in the dosage, and possibly also a change in the mode of administration, can be considered. Further, the active ingredient can be administered in higher concentration, or in such a way as to prolong the time of its contact with the oral cavity. […] This was investigated as a secondary target variable."}, "[2]": {"assay": "28-day feeding study in cats, antioxidant status", "format": "in vivo", "conditions": "dry cat food with 227 mg/kg of EGCG, 28 days, compared with control group", "method": "Periodontopathic conditions are the most common disease in dogs and cats. Especially in cats, prophylaxis is usually limited to professional dental cleaning under anaesthesia. Special diets which reduce plaque and calculus accumulation have been formulated to extend the period of time between professional dental cleanings. The study was conducted to determine the effect of EGCG in a regular dry diet on the oral health of cats. In addition, the in vitro antibacterial activity of the substance and its effect on the antioxidant status of cats were evaluated. The substance under investigation was sprayed on a standard dry cat food. The supplemented diet contained 227 mg/kg of EGCG. 18 cats were made available for the feeding study, being assigned either to a control group or a study group, each group containing 9 cats. At the beginning of the trial, which was conducted over a period of 28 days, the oral health status of the cats was examined using various indices and tests, and samples from the oral cavity were obtained for bacteriological analysis. In addition, blood samples were taken to determine the antioxidant status of the animal. The examinations were followed by a coronal cleaning (scaling and polishing) to ensure that the study period began with no plaque or calculus present on tooth surfaces (“clean tooth” model). […]"}}}
{"smiles": "O=C(O[C@@H]1Cc2c(O)cc(O)cc2O[C@@H]1c1cc(O)c(O)c(O)c1)c1cc(O)c(O)c(O)c1", "note": "[Epigallocatechingallate]", "values": [{"measurement": "inhibition of growth of bacteria taken from the feline oral cavity", "setting": "[1]", "value": "able to inhibit the growth bacteria taken from the feline oral cavity in vitro"}, {"measurement": "effect on the antioxidant status of the cats", "setting": "[2]", "value": "positive effect on the antioxidant status of the cat"}]}
